Calls of active or inactive are those of the source. The calls are words filed in the database; no cut-off is given here.
What was measured:
[1] = system: Staphylococcus aureus; assay: Antimicrobial activity against Staphylococcus aureus 209 assessed as reduction in microbial growth up to 70 uM after 24 hrs; type: functional, organism-based; conditions: dose microM <=70, time 24.0 hrs
[2] = system: Plasmodium falciparum; assay: Antimalarial activity against Plasmodium falciparum 3D7; type: functional, organism-based
[3] = system: Escherichia coli; assay: Antimicrobial activity against Escherichia coli HO141 assessed as reduction in microbial growth up to 70 uM after 24 hrs; type: functional, organism-based; conditions: dose microM <=70, time 24.0 hrs
[4] = system: HeLa; assay: Cytotoxicity against human HeLa cells assessed as reduction in cell viability up to 70 uM after 48 hrs by WST-8 assay; type: functional, cell-based; conditions: dose microM <=70, time 48.0 hrs
[5] = system: Pyricularia oryzae; assay: Antimicrobial activity against Pyricularia oryzae kita-1 assessed as reduction in microbial growth up to 70 uM after 48 hrs; type: functional, organism-based; conditions: dose microM <=70, time 48.0 hrs
[6] = system: Aspergillus fumigatus; assay: Antimicrobial activity against Aspergillus fumigatus Af293 assessed as reduction in microbial growth up to 70 uM after 48 hrs; type: functional, organism-based; conditions: dose microM <=70, time 48.0 hrs
[7] = system: Candida albicans; assay: Antimicrobial activity against Candida albicans JCM1542 assessed as reduction in microbial growth up to 70 uM after 48 hrs; type: functional, organism-based; conditions: dose microM <=70, time 48.0 hrs
[8] = system: HL-60; assay: Cytotoxicity against human HL-60 cells assessed as reduction in cell viability up to 70 uM after 48 hrs by WST-8 assay; type: functional, cell-based; conditions: dose microM <=70, time 48.0 hrs
[9] = system: NRK; assay: Cytotoxicity against rat NRK cells infected with ts25 T-class mutant of Rous sarcoma virus Prague strain assessed as reduction in cell viability up to 70 uM after 48 hrs by WST-8 assay; type: functional, cell-based; conditions: dose microM <=70, time 48.0 hrs

What does the source list for `C\C1=C/C=C\C=C\[C@H](C)CNC(=O)CC(=O)C[C@@H]2O[C@H]3[C@@H]4[C@@H](C=C[C@H]1[C@H]42)[C@@H](O)C[C@H]3O`?
Activity [1]: inactive; IC50 [2]: 12 µM; Activity [3]: inactive; Activity [4]: inactive; Activity [5]: inactive; Activity [6]: inactive; Activity [7]: inactive; Activity [8]: inactive; Activity [9]: inactive
